ChEMBL document CHEMBL5257037, “Side Chain Cyclized Aromatic Amino Acids: Great Tools as Local Constraints in Peptide and Peptidomimetic Design” (J Med Chem, 2016)
Where a SMILES comes first, the peptide text is derived from it. Bridges are numbered along the chain shown (N, C = ends). [ ]: non-standard residue; d: D form. Aic = NC1(C(=O)O)Cc2ccccc2C1; dOrn = NCCC[C@@H](N)C(=O)O; Orn = NCCC[C@H](N)C(=O)O

Columns and labels:
[1] = molecular target: Angiotensin-converting enzyme (Homo sapiens, UniProt P12821); assay: Inhibition of angiotensin-converting enzyme (unknown origin)
Neprilysin [2] = molecular target: Neprilysin (Homo sapiens, UniProt P08473); assay: Inhibition of neutral endopeptidase (unknown origin)
[3] = molecular target: T1, Angiotensin-converting enzyme (Oryctolagus cuniculus, UniProt P12822); assay: Inhibition of rabbit lung angiotensin-converting enzyme; format: tissue-based
T1 sequence (P12822 whole entry): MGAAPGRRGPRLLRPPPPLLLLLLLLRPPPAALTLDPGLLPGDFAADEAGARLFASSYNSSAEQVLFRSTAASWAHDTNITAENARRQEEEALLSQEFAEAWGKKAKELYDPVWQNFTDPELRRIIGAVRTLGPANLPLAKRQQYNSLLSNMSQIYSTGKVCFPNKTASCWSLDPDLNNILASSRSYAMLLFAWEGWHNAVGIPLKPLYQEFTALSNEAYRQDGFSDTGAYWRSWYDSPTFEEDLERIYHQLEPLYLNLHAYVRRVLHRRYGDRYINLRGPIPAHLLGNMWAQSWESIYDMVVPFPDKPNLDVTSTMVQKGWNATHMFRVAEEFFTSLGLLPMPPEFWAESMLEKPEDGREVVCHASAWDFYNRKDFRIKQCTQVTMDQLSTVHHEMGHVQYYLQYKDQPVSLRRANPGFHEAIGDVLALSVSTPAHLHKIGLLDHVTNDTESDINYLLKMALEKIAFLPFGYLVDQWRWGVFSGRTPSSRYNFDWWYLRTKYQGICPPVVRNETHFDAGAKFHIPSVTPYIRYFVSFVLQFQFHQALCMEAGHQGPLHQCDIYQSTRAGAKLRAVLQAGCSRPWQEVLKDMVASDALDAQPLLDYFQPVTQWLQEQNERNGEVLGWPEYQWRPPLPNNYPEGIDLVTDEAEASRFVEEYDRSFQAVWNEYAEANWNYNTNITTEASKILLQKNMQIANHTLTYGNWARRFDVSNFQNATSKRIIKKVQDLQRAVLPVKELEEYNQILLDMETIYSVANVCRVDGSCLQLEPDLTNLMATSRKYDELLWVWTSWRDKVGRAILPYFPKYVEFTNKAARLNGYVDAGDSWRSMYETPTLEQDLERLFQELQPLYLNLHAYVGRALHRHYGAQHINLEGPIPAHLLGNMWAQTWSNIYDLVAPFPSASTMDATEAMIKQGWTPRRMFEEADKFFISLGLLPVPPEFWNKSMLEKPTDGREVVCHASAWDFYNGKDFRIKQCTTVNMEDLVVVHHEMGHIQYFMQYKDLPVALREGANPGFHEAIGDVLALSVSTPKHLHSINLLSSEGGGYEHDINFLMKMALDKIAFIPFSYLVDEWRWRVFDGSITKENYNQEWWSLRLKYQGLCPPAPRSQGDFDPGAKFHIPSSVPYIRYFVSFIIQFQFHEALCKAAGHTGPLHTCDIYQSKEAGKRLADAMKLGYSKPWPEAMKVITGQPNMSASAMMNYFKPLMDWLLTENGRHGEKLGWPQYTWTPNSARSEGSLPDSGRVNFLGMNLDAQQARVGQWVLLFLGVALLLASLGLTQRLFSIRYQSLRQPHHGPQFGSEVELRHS

[4] = molecular target: T1, Angiotensin-converting enzyme; assay: Binding affinity to angiotensin-converting enzyme in rabbit lung assessed as inhibition constant; format: tissue-based
Neprilysin [5] = molecular target: T2, Neprilysin (Rattus norvegicus, UniProt P07861); assay: Binding affinity to rat kidney neutral endopeptidase; format: tissue-based
T2 sequence (P07861 whole entry): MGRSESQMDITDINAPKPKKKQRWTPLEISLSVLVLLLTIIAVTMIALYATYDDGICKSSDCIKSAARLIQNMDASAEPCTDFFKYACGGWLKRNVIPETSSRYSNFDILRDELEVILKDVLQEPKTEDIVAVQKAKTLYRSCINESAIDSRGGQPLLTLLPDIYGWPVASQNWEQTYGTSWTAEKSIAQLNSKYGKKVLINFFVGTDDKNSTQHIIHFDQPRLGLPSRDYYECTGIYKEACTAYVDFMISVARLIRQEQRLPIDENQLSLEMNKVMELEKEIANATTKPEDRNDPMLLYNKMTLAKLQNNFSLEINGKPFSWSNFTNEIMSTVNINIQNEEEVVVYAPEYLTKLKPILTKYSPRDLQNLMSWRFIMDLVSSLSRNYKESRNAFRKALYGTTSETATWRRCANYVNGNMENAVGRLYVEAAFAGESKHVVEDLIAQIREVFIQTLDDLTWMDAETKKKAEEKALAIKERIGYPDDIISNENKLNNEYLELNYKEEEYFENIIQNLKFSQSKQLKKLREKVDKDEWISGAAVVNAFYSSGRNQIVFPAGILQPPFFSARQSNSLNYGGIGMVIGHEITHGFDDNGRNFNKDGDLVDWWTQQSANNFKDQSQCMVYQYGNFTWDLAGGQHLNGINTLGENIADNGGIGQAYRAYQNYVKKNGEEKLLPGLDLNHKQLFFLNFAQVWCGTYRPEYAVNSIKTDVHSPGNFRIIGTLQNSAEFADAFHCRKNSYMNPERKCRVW

[6] = molecular target: Somatostatin receptor type 3 (Homo sapiens, UniProt P32745); assay: Inhibition of human somatostatin receptor type 3
[7] = molecular target: Somatostatin receptor type 4 (Homo sapiens, UniProt P31391); assay: Inhibition of human somatostatin receptor type 4
[8] = molecular target: Somatostatin receptor type 1 (Homo sapiens, UniProt P30872); assay: Inhibition of human somatostatin receptor type 1
[9] = molecular target: Somatostatin receptor type 5 (Homo sapiens, UniProt P35346); assay: Inhibition of human somatostatin receptor type 5
[10] = molecular target: Somatostatin receptor type 2 (Homo sapiens, UniProt P30874); assay: Inhibition of human somatostatin receptor type 2
[11] = molecular target: T3, Somatostatin receptor type 5 (Rattus norvegicus, UniProt P30938); assay: Inhibition of rat somatostatin receptor type 5
T3 sequence (P30938 whole entry): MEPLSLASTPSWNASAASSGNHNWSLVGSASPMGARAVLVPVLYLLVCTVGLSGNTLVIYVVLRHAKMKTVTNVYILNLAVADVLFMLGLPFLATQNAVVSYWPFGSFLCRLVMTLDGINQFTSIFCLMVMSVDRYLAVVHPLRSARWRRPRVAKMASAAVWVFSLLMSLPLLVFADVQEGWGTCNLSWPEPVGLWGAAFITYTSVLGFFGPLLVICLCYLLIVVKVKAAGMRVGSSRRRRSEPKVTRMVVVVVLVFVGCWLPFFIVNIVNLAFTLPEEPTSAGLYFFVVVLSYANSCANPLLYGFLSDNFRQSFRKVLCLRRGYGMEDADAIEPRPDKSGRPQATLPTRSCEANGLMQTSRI

Renin = molecular target: T4, Renin (Homo sapiens, UniProt P00797); assay: Inhibition of human plasma renin; format: cell-free
T4 sequence (P00797 whole entry): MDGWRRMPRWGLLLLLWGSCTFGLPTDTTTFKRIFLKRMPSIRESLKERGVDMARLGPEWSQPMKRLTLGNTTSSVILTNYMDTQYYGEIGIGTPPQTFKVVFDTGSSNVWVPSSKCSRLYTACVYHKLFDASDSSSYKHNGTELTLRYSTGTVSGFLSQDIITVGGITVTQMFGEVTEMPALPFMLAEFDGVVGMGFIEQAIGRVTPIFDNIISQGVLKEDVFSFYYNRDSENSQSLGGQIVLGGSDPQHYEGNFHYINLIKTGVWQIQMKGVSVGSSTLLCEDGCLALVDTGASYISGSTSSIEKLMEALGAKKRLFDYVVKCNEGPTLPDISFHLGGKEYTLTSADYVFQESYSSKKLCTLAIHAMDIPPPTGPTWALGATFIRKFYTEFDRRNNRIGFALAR

[12] = Inhibition of angiotensin-converting enzyme (unknown origin)
[13] = molecular target: T5, Delta-type opioid receptor (Homo sapiens, UniProt P41143); assay: Binding affinity to delta opioid receptor (unknown origin) assessed as inhibition constant
Mu-type opioid receptor [14] = molecular target: T6, Mu-type opioid receptor (Homo sapiens, UniProt P35372); assay: Binding affinity to mu opioid receptor (unknown origin) assessed as inhibition constant
Mu-type opioid receptor [15] = molecular target: T6, Mu-type opioid receptor; assay: Inhibition of MOR (unknown origin)
[16] = molecular target: T5, Delta-type opioid receptor; assay: Inhibition of DOR (unknown origin)
Mus musculus = species on record: Mus musculus; assay: Inhibition of electrically evoked mouse vas deferens contraction; format: functional

C[C@H](NC(=O)[C@@H](CS)Cc1ccccc1)C(=O)N1Cc2ccccc2C[C@H]1C(=O)O
IC50 [1]: 14 nM
IC50 (Neprilysin [2]): 3.9 nM

C[C@H](NC(=O)[C@@H](CS)Cc1ccccc1)C(=O)N1c2ccccc2C[C@H]1C(=O)O
IC50 [1]: 7.8 nM
IC50 (Neprilysin [2]): 2.6 nM

O=C(O)[C@H](CCc1ccccc1)N[C@H]1CCc2cccc3c2N(C1=O)[C@H](C(=O)O)C3
IC50 [3]: 5.2 nM

O=C(N[C@H]1Cc2ccccc2[C@H]2CCC[C@@H](C(=O)O)N2C1=O)[C@@H](S)Cc1ccccc1
Ki [4]: 0.11 nM
Ki (Neprilysin [5]): 0.08 nM

CC(=O)N[C@@H](Cc1ccccc1)C(=O)N[C@]1(C)Cc2c([nH]c3ccccc23)CN([C@@H](CCCCN)C(=O)N[C@H](C(N)=O)[C@@H](C)O)C1=O
IC50 [6]: > 1000 nM
IC50 [7]: > 1000 nM
IC50 [8]: > 1000 nM
IC50 [9]: > 1000 nM
IC50 [10]: > 1000 nM

CC(=O)N[C@@H](Cc1ccccc1)C(=O)N[C@@H]1Cc2c([nH]c3ccccc23)CN([C@@H](CCCCN)C(=O)N[C@H](C(N)=O)[C@@H](C)O)C1=O
IC50 [11]: 217 nM
IC50 [7]: 36 nM
IC50 [8]: 253 nM

O=C(N[C@H]1Cc2ccccc2[C@H]2CCC[C@@H](C(=O)O)N2C1=O)[C@H](S)Cc1ccccc1
Ki [4]: 4.5 nM
Ki (Neprilysin [5]): 0.07 nM

CCCCNC(=O)[C@@H](C[C@H](O)[C@H](CC1CCCCC1)NC(=O)[C@H](CCCC)NC(=O)[C@H](Cc1ccccc1)NC(C)=O)C(C)C
IC50 (Renin): 0.84 nM

CC(CS)C(=O)N1CCc2ccccc2C1C(=O)O (stereo not drawn)
IC50 [12]: 58000 nM

CC(CS)C(=O)N1Cc2ccccc2C1C(=O)O (stereo not drawn)
IC50 [12]: 14000 nM

CC(=O)N[C@@H](Cc1ccccc1)C(=O)N[C@@H](Cc1c[nH]c2ccccc12)C(=O)N[C@@H](CCCCN)C(=O)N[C@H](C(N)=O)[C@@H](C)O (Ac-FWKT-NH2)
IC50 [6]: > 1000 nM
IC50 [7]: > 1000 nM
IC50 [8]: > 1000 nM
IC50 [9]: > 1000 nM
IC50 [10]: > 1000 nM

NC(=O)[C@@H]1CCC(=O)NCCC[C@H](NC(=O)[C@@H](N)Cc2ccc(O)cc2)C(=O)NC2(Cc3ccccc3C2)C(=O)N1 (H-Y[Orn][Aic]E-NH2; lactam 2-4)
Ki [13]: 209 nM
Ki (Mu-type opioid receptor [14]): 4.21 nM

C[C@@H](NC(=O)[C@@H](N)Cc1ccc(O)cc1)C(=O)N[C@@H](Cc1ccccc1)C(=O)NCC(N)=O (H-Y[dA]FG-NH2)
IC50 (Mu-type opioid receptor [15]): 36.7 nM
IC50 [16]: 1250 nM

CC(C)[C@H](NC(=O)[C@H](CC(=O)O)NC(=O)C1(NC(=O)[C@@H](C)NC(=O)[C@@H](N)Cc2ccc(O)cc2)Cc2ccccc2C1)C(=O)N[C@H](C(=O)NCC(N)=O)C(C)C (H-Y[dA][Aic]DVVG-NH2)
IC50 (Mus musculus): 0.08 nM
Ki [13]: 4.96 nM

NC(=O)[C@@H]1CCC(=O)NCCC[C@@H](NC(=O)[C@@H](N)Cc2ccc(O)cc2)C(=O)N[C@@H](Cc2ccccc2)C(=O)N1 (H-Y[dOrn]FE-NH2; lactam 2-4)
Ki [13]: 3.21 nM
Ki (Mu-type opioid receptor [14]): 0.98 nM
